Consider 1 substance from patent publication US9133255B2, “Products and methods using soy peptides to lower total and LDL cholesterol levels” (SOY LABS, LLC, priority 2006, dated 2015).

For data set [1] the following is noted: cited from earlier work.
The subject of a further data set is p21/WAF1/Cipi. Conditions: NIH 3T3 cells pre-treated 24 hours, eight days after E1A transfection; cited from earlier work.
The target in the next data set is deacetylated histone H4 (Homo sapiens, UniProt P62805). Conditions: cited from earlier work.
The next data set deals with skin tumor. The note with it: mice, applied topically, ethanol as delivery system; cited from earlier work.
Another data set concerns C3H/T101/2 cells. The note with it: cited from earlier work.
For a further data set, the system named is HMG-CoA reductase. Put plainly: HMG-CoA reductase expression in HepG2 cells, Western blot. It is filed as cell-based. The note with it: 10 uM synthetic lunasin 24 h, cholesterol-free media 24 h, densitometry, FIG. 2. The procedure:
(§1) In cell culture of HepG2 liver cells, it is possible to activate SREBP and increase the expression of HMG-CoA reductase and LDL-receptor by removing cholesterol in the growth media. This can be achieved by exposing the cells to serum-free media for 24 hours (31, 32).
(§2) In the first experiment, HepG2 cells (1×10^6) were treated with or without 10 uM synthetic lunasin in DMEM with 10% FBS for 24 hours before growth media was replaced with cholesterol-free media to activate SREBP. After 24 hours, total protein was extracted and 10 ug protein was loaded onto 10% Tris-glycine gels, electroblotted onto nitrocellulose membrane, and immunostained with primary antibodies raised against HMG-CoA reductase and actin (to show equal loading of proteins). Spot densitometer values are obtained by digital scanning and Un-Scan It software, and represent mean and standard deviation of data from three separate experiments.

The test system of data set [2] is non-tumorigenic (RWPE-1) prostate cells. Conditions: 2 uM lunasin, cited from earlier work.
The next data set concerns Sp1. In words: Sp1 level in HepG2 cells, Western blot. The data set is classed as cell-based. The note with it: 10 uM synthetic lunasin. The protocol: Unlike HMG-CoA reductase, SREBP activation of LDL-receptor by sterol depletion requires increased recruitment of Sp1 co-activator to a site adjacent to SREBP in the promoter/regulatory sequence of LDL-receptor gene (25). […] To test this hypothesis, the level of Sp1 was determined in lunasin-treated growth media and cholesterol-free media by Western analysis using Sp1 antibody, as follows: HepG2 cells (1×10^6) were grown from confluence in DMEM with 10% FBS for 24 hours before growth media was replaced with fresh growth media or cholesterol-free media (to activate SREBP) and treated with, or without 10 uM synthetic lunasin. After 24 hours, total protein was extracted from each treatment and 10 ug protein loaded onto 10% Tris-glycine gels, electroblotted onto nitrocellulose membrane, and immunostained with primary antibodies raised against Sp1 and actin (to show equal loading of proteins). Spot densitometer values were obtained by digital scanning and Un-Scan It software and represent data from one experiment.

A further data set concerns E1A-transfected cells. The note with it: cited from earlier work.
In data set [3] the test system is histone H3 and H4 acetylation. The note with it: cited from earlier work.
Data set [4] concerns the target T1, histone H3 acetylation by PCAF (Gallus gallus, UniProt P84229).
T1 construct: Core histones purified from chicken erythrocyte cells were used as templates in histone acetylase (HAT) reactions; purchased Upstate/Millipore; host or cells: chicken erythrocytes (histones)
In words: H3 histone acetyltransferase (HAT) assay with PCAF, chicken erythrocyte core histones. The data set is classed as biochemical. Conditions: vs untreated control, FIG. 7. The text has this:
The invention further provides an in vitro assay that can be used to screen potential sources of lunasin or analogues, fragments or variants of lunasin for biologically active material useful in the methods of the present invention. In one embodiment of the present invention, core histones purified from acid-extracted proteins of HeLa cells and chicken erythrocyte cells as well as recombinant histone H3 (commercially available from Upstate/Millipore) are used as templates in histone acetylase (HAT) reactions using PCAF histone acetylase enzyme in the presence or absence of lunasin. […] Chemiluminescent signals from antibody complexes can be visualized using standard chemiluminescent reagents and exposed to Kodak BioMAX film, developed and spot densitometer measured by using digital scanner and UN-SCAN-IT software program from Silk Scientific (Orem, Utah).
Biological activity of LeSC (A), LeSC+SF (B), digested LeSC+SF (C), digested LeSC (D), digested soy protein isolate (E) and digested soy concentrate (F) was measured using the H3 histone acetyltransferase (HAT) assay (see Example 8.) Around 100 mg total protein of LeSC, LeSC+SF, soy protein isolate and soy concentrate were digested by mixing pancreatin (Sigma Life Sciences, Saint Louis, Mo.) at 1:1 (w/w) and incubating for 30 min. at 40° C. […]

The target in data set [5] is T2, histone H3 acetylation by PCAF (Homo sapiens, UniProt P68431).
T2 construct: The core histones isolated from untreated HeLa cells were used as a negative control; purchased Upstate/Millipore; host or cells: HeLa cells (histones)
In words: HAT assay with PCAF, HeLa core histones. The data set is classed as biochemical. Conditions: FIG. 8. The protocol: A confirmatory experiment to determine the biological activity of digested and undigested LeSC and LeSC+SF was conducted using a different core histone template. This time we used the core histones extracted from HeLa tumor cells. Unlike the chicken erythrocyte cells, core histones from sodium butyrate treated HeLa cells are commercially available (Upstate/Millipore, Piscataway, N.J.), and can be used as a positive control for histone acetylation. The core histones isolated from untreated HeLa cells were used as a negative control (low levels of histone acetylation) and as template for the HAT assay.
The HAT bioactivity assay was conducted using acid extracted core histones from HeLa cells (Upstate/Millipore) as a template (temp (−) control) for the PCAF catalyzed HAT reaction. […] The numbers below the legend indicate relative densitometer readings normalized using immunosignal from the template (temp). […]
LeSC+SF was partially digested by mixing it with freshly prepared pancreatin solution (10 ug/mL of distilled water) in a 1:0.5, (w/w) ratio. […] However, the conditions for the partial digestion of LeSC+SF has to be determined empirically by analyzing digestion products for lunasin content (FIG. 6) and biological activity using the HAT assay (FIG. 8.)

Data set [6] concerns tumorigenic (RWPE-2) prostate cells. Conditions: 2 uM lunasin, cited from earlier work.
In the next data set the test system is LDL-receptor. In words: LDL-receptor expression in HepG2 cells, Western blot. The note with it: 10 uM synthetic lunasin 24 h, cholesterol-free media 24 h, densitometry, FIG. 3. The data set is classed as cell-based. The procedure: as §1
as §2, with “the second” for “the first”, “media is” for “media was”, “ug proteins” for “ug protein was”, “against LDL-receptor” for “against HMG-CoA reductase”, “values were” for “values are”

On to “lunasin: natural, synthetically or recombinantly obtained soybean lunasin polypeptide (SEQ ID 2), small subunit of a cotyledon-specific 2S albumin”, for which the water solubility result in data set [1] is recorded as “water soluble”. In addition, the “increase in p21/WAF1/Cipi protein levels” value in the data set with p21/WAF1/Cipi is reported as “five-fold”. For the same substance, the binding to histones entry with deacetylated histone H4 was “binds preferentially to deacetylated histone H4”. The skin tumor formation result with skin tumor is recorded as “reduce skin tumor formation”. Further, the “reduction of foci formation” value in the data set with C3H/T101/2 cells (cells pre-treated with lunasin, exposed to DMBA and MCA) is 70%. Also, the “concentration sufficient to suppress foci formation” value with C3H/T101/2 cells (single 24 hour exposure, assays lasted six weeks) is listed as 125 nM. In addition, the “reduction of HMG-CoA reductase expression” value with HMG-CoA reductase is on record as “more than 50%”. In data set [2] (24 hours, of 14500 genes, RWPE-1 and RWPE-2 together), the “number of genes with greater than twofold change in expression” value is given as 123 genes. In addition, the “number of genes up-regulated” value in [2] (RWPE-1 cells, 24 hours) is 121 genes; in [6] (RWPE-2 cells, 24 hours), “two”. Besides, the genes down-regulated entry in [2] (non-tumorigenic epithelial cells) and in data set [6] (tumorigenic epithelial cells) was “No genes were down-regulated” each time. The “further increase of Sp1 levels” value in the data set with Sp1 (cholesterol-free media, FIG. 4, one experiment) is about 60%. The “Sp1 levels, lunasin-treated vs control” value with Sp1 (growth media, FIG. 4) is reported as “not significantly different”. Besides, the apoptosis entry with E1A-transfected cells is given as “induces apoptosis”. In data set [3], the “histone H3 and H4 acetylation” value is “inhibits histone H3 and H4 acetylation”. The “H3 acetylation by PCAF (biological activity), undigested sample” value in [4] is given as “significant reduction in H3 acetylation”; in [5], “Significant reduction in H3 acetylation”. For the same substance, the “increase of LDL-receptor expression” value with LDL-receptor is “more than 60%”.
